107 molecules from a melting point compilation (Tetko et al.) can be followed below.

In the case of `CC(=O)NC1C(OCc2ccccc2)OC(COC(c2ccccc2)(c2ccccc2)c2ccccc2)C(O)C1O` (configuration not stated), the melting point lay in the range of 102 to 107 °C.

`O=C(O)CC1CCCCC1` returned a melting point of 33 °C.

`O=[N+]([O-])c1ccc(C(Br)C(Br)c2ccc(C(Br)C(Br)c3ccc([N+](=O)[O-])cc3[N+](=O)[O-])cc2)c([N+](=O)[O-])c1` (configuration not stated): the melting point came to 265 °C.

Turning to `Nc1ncnc2c1ncn2[C@H]1C=C[C@@H](CO)O1`, the melting point was 189 to 191 °C.

In turn, `CC12CCC(=O)C=C1CCC1C2CCC2(C)C(OC(=O)CCC3CCCC3)CCC12` (configuration not stated) gave a melting point of 155 °C.

The molecule `N#Cc1cc([N+](=O)[O-])ccc1F` returned a melting point of 73 to 74 °C.

`O=C(O)C1(C(=O)O)CC1` returned a melting point of 134 to 138 °C.

On to `CCOC(=O)C12C(c3cc(Br)ccc3OP1(=O)OCC)C1(C(=O)OCC)C2c2cc(Br)ccc2OP1(=O)OCC` (configuration not stated), for which the melting point was 272 to 274 °C.

The molecule `CC(=O)C1CCC2C3CC(C)C4=CC(=O)CCC4(C)C3C(O)CC12C` (configuration not stated) had a melting point of 156 °C.

In turn, `Nn1nnc2ccccc21` showed a melting point of 81 to 85 °C.

Take `CC1=NNC(=O)C1(Br)Br`: the melting point turned out to be 131 °C.

As for `C=CC(C)O` (configuration not stated), the melting point is -100 °C.

With `O=[N+]([O-])c1ccc(NN=C2c3ccccc3C2Cl)c([N+](=O)[O-])c1` (configuration not stated), the melting point worked out at 228 °C.

Consider `N#CC1(c2ccc(F)cc2)CCC(=O)CC1`, for which the melting point was 93 °C.

`CCCCCSC` had a melting point of -94 °C.

Regarding `CCCCOCN(C(=O)CCl)c1c(CC)cccc1CC`, the melting point was -0.55 °C.

For the molecule `COc1cc(-c2nnc3n2N=C(C(C)C)CS3)cc(OC)c1OC`, the melting point was found to be 157 °C.

For the molecule `C/C(=N\NC(N)=O)C1CC2(C)CCC1C2(C)C` (configuration not stated), the melting point was determined as 236 °C.

`CC(C)(C)OC(=O)N[C@@H](Cc1ccc(Cl)cc1Cl)C(=O)O` displayed a melting point of 132 °C.

`CC(=O)O[Si](C)(C)OC(C)=O` had a melting point of -12.5 °C.

`CC(C)=CCCC(C)=CCO` had a melting point of 50 °C.

As to `OCc1cc(-c2cccs2)[nH]n1`, the melting point was 126 to 128 °C.

Take `NC(=O)c1ccc(Cl)c(Cl)c1`: the melting point is 141 °C.

`CCOC(=O)C(C)(C)C(=O)OCC` gave a melting point of -30.4 °C.

`Cc1nc(-c2ccc(C(F)(F)F)cc2)sc1C(=O)O` registered a melting point of 237 to 238 °C.

The molecule `Cn1c(/C(C#N)=N/Nc2ccccc2Cl)nc2ccccc21` came in with a melting point of 193 °C.

Molecule `O=c1c(Cc2c(O)oc3ccccc3c2=O)c(O)oc2ccccc12` yielded a melting point of 290 °C.

For `NC(=O)NN=Cc1cccc2c(Br)cccc12`, the melting point fell in the range of 257 to 259 °C.

In turn, `OC(c1ccc(F)cc1)(c1cncnc1)c1ccccc1Cl` (configuration not stated) returned a melting point of 126 °C.

For `O=C(O)C1=CCCC1`, the melting point is 119 °C.

Take `O=[N+]([O-])c1cccc(SSc2cccc([N+](=O)[O-])c2)c1`: the melting point came out at 84 °C.

As to `Oc1c(I)cc(Cl)c2cccnc12`, the melting point came to 178 °C.

Molecule `COc1ccccc1-c1ccc(C=C2C(=O)NC(=S)NC2=O)o1` yielded a melting point of 235 °C.

`Brc1cc(Br)c(Oc2cc(Br)c(Br)cc2Br)cc1Br` came in with a melting point of 160 to 163 °C.

Take `Cn1c(=O)c(C(N)=S)cn(-c2ccccc2)c1=O`: the melting point lay in the range of 229 to 232 °C.

`N#CC(Cc1ccc([N+](=O)[O-])cc1)c1ccccc1` (configuration not stated): the melting point is 134 °C.

Turning to `O=C(C=Cc1ccccc1O)c1cccc(C(=O)C=Cc2ccccc2O)c1`, the melting point amounted to 150 °C.

`FC(F)(Cl)CBr` had a melting point of -76 °C.

`Cc1nc(N)nc(Cl)c1Cc1ccccc1` gave a melting point of 195 to 196 °C.

`COc1ccc(C(=CC(=O)N2CCOCC2)c2ccc(Cl)cc2)cc1OC` returned a melting point of 148 °C.

As to `C=C1[C@@H](c2ccccc2)[C@]2(Cl)C(=O)N(C)C(=O)[C@]12Cl`, the melting point is 134 °C.

The molecule `CC(C)S(=O)(=O)c1cnc(N2CCCCC2)nc1N` had a melting point of 155 to 158 °C.

Molecule `COc1ccc(N)c(C)c1` yielded a melting point of 29.5 °C.

With `COC(=O)c1cc(C)n(C)n1`, the melting point came to 93 °C.

In turn, `O=C(C=Cc1ccc([N+](=O)[O-])cc1)c1ccc(Cl)cc1` had a melting point of 163 °C.

As to `CC(C)c1ccc(C=CC(=O)O)cc1`, the melting point was in the range of 157 to 161 °C.

As to `O=C1CCC(c2ccc(NC(=O)c3ccc(F)cc3)cc2)=NN1`, the melting point is 285 to 287 °C.

Take `N#CCSc1ccc(F)cc1`: the melting point was 34 °C.

The molecule `COc1ccc(-c2ccccc2)cc1NC(=O)C(F)(F)C(F)(F)C(F)(F)C(F)(F)C(F)(F)C(F)(F)C(F)(F)C(F)(F)F` displayed a melting point of 118 °C.

In the case of `Cc1cc(N)ccc1O`, the melting point came to 176 °C.

Molecule `Cc1nc2ccc3ccccc3c2o1` displayed a melting point of 37 °C.

For `N#CCCN1C(=O)COc2ccc(Cl)cc21`, the melting point came to 131 °C.

On to `CC(=O)OC1(C(C)=O)CCC2C3CC(C)C4=CC(=O)CCC4(C)C3CCC21C` (configuration not stated), for which the melting point is 206 °C.

For `CN1CCCN(c2ccc(C=O)cc2)CC1`, the melting point was 44 to 46 °C.

Turning to `Nc1ccc(NC(=O)C(F)(F)F)cc1`, the melting point amounted to 118 °C.

With `Cc1cccc2c(O)noc12`, the melting point was 155 to 157 °C.

`CN(C)c1ccc(N=C(C#N)c2cccc(C(C#N)=Nc3ccc(N(C)C)cc3)c2)cc1` showed a melting point of 150 °C.

`O=C(O)c1ccc2c(c1)C(=O)c1ccccc1C2=O` had a melting point of 291 °C.

The molecule `CCOC(=O)C1=C(c2ccccc2)NC(=O)NC1c1ccccc1` (configuration not stated) yielded a melting point of 172 °C.

On to `COc1cc(CCC(C)=NO)ccc1O`, for which the melting point lay in the range of 82 to 84 °C.

For the molecule `Oc1ncnc2[nH]cnc12`, the melting point stood at 250 °C.

As for `CC(=O)c1ccc(N=C=O)cc1`, the melting point came out at 34 °C.

For the molecule `O=C(c1ccc(Br)cc1)c1noc(-c2ccc([N+](=O)[O-])cc2)c1S(=O)(=O)c1ccccc1`, the melting point was in the range of 200 to 202 °C.

In turn, `COC(=O)c1cc2c(s1)-c1cc(Cl)ccc1SC2` gave a melting point of 158 to 160 °C.

Take `CCCc1c(C)nc(NC(=O)NS(=O)(=O)c2cccs2)nc1O`: the melting point fell in the range of 210 to 212 °C.

`CCN(CC)CC(=O)Nc1c(C)cc(C)cc1C` registered a melting point of 44 °C.

In turn, `O=Cc1cc(O)ccc1[N+](=O)[O-]` came in with a melting point of 167 °C.

`O=Cc1ccc(Oc2cccnc2)o1` returned a melting point of 72 to 73 °C.

As to `CC1(C)CC(=O)C2=C(C1)Nc1c(ccc3ccccc13)C2c1ccc(F)cc1` (configuration not stated), the melting point was found to be 279 °C.

Molecule `O=C(COc1ccc(Cl)cc1)Nc1nc2ccc(Br)cc2s1` showed a melting point of 236 °C.

For the molecule `O=C(O)c1ccc(S)cc1`, the melting point worked out at 219 °C.

In turn, `Clc1ccc(Br)nc1` displayed a melting point of 65 to 69 °C.

Take `CCC(Nc1ncnc(C)c1Cl)c1ccc(OC(F)F)cc1` (configuration not stated): the melting point was determined as 47.8 °C.

In the case of `COC(CCNC1=CC(=O)c2ccccc2C1=O)OC`, the melting point amounted to 114 °C.

In turn, `Cn1c(S)nnc1-c1ccccc1` gave a melting point of 188 °C.

Take `COc1ccc(N)c(C(=O)O)c1`: the melting point amounted to 151 °C.

In the case of `CCc1cn(C2CC(O)C(CO)O2)c(=O)[nH]c1=O` (configuration not stated), the melting point turned out to be 152 °C.

The molecule `CCCCNC(=O)NS(=O)(=O)c1ccc(N)cc1` registered a melting point of 144 °C.

`CC(C)(C)NCCO`: the melting point turned out to be 44 °C.

The molecule `Cc1cccc(Cl)c1C#N` showed a melting point of 81 °C.

For the molecule `CCOP(=O)(N=C1SCCS1)OCC`, the melting point was 41 °C.

For the molecule `Cc1c[nH]c(C)n1`, the melting point is 92 °C.

As for `COc1ccc(C(=O)c2noc(-c3ccc([N+](=O)[O-])cc3)c2S(=O)(=O)c2ccccc2)cc1`, the melting point is 176 °C.

In turn, `Cc1cc(C)c(C2(C)CC(C(=O)c3cc4ccccc4o3)C2)c(C)c1` (configuration not stated) showed a melting point of 147 to 148 °C.

`S=C1SCCS1` came in with a melting point of 35 °C.

As for `O=C1C(=Cc2ccc(N(CCCl)CCCl)cc2)SC(=S)N1CN(CCCl)CCCl`, the melting point stood at 106 °C.

In turn, `CC(C)(C)OC(=O)N1CCC[C@H]1CO` returned a melting point of 61 °C.

In the case of `CCOC1OC(C(N)=O)=CC(C)C1Br` (configuration not stated), the melting point was 131 °C.

Regarding `CC(=O)N(C)c1ccccc1`, the melting point was 103 °C.

`O=[N+]([O-])c1ccc(Oc2c(Cl)cccc2Cl)c(Cl)c1` had a melting point of 136 to 138 °C.

The molecule `CC(C)(O)CCl` gave a melting point of -20 °C.

Consider `CN(C(=O)COc1nc2ccccc2s1)c1ccccc1`, for which the melting point came out at 135 °C.

As to `Cc1ccc(C)c2c1C(=O)N(C)C2O` (configuration not stated), the melting point was 163 °C.

Turning to `O=C(O)c1cc(-c2cccs2)[nH]n1`, the melting point is 229 to 232 °C.

`COC(=O)C(C)N(C(=O)Cc1ccccc1)c1c(C)cccc1C` (configuration not stated): the melting point was determined as 79 °C.

For the molecule `Cn1nc(C(F)(F)F)c(C(=O)O)c1Cl`, the melting point was 201 to 202 °C.

On to `O=C1c2ccccc2C(=O)N1CCS(=O)(=O)Cl`, for which the melting point turned out to be 158 °C.

`N#Cc1ccc(N)cc1C#N` yielded a melting point of 181 °C.

On to `C[Si](C)(C)O[Si](C)(C)O[Si](C)(C)O[Si](C)(C)O[Si](C)(C)O[Si](C)(C)C`, for which the melting point was -59 °C.

On to `O=C(Nc1nnc(-c2ccc(Cl)cc2)o1)c1ccc(F)cc1`, for which the melting point was 282 to 284 °C.

`C=C(C)C(=O)CC`: the melting point is -69.5 °C.

On to `O=C(Cl)c1cccc(S(=O)(=O)Cl)c1`, for which the melting point lay within 18 to 20 °C.

As for `O=C(CI)OC(=O)CI`, the melting point was in the range of 43 to 49 °C.

As to `NNC(=O)c1ccc(N)c(N)c1`, the melting point came out at 149 °C.

For `Cc1nc(-c2ccc(C(F)(F)F)cc2)sc1Br`, the melting point is 68 to 69 °C.

The molecule `COC(=O)c1ccccc1C(=O)c1cc(C)c(O)c(C)c1` displayed a melting point of 155 to 157 °C.

On to `CCC(=O)c1ccc(OCc2ccccc2)cc1`, for which the melting point worked out at 100 °C.
